Where only a bound is given, the exact number is not on record here.

IC50 data for 28 compounds are collected here from patent US11053213B2, “Pharmaceutical compounds” (ALMAC DISCOVERY LIMITED, priority 2016, dated 2021).

The target of this assay is USP19 (Homo sapiens (Human), UniProt O94966). The assay is described as follows: USP19 activity assay (fluorescence polarisation, Ubiquitin-Lys-TAMRA substrate). It counts as biochemical. The settings on record: full-length USP19 2.5 nM, 30 min pre-incubation, Ub substrate 500 nM; average of at least two duplicate experiments.
Chain of USP19 (O94966 whole entry): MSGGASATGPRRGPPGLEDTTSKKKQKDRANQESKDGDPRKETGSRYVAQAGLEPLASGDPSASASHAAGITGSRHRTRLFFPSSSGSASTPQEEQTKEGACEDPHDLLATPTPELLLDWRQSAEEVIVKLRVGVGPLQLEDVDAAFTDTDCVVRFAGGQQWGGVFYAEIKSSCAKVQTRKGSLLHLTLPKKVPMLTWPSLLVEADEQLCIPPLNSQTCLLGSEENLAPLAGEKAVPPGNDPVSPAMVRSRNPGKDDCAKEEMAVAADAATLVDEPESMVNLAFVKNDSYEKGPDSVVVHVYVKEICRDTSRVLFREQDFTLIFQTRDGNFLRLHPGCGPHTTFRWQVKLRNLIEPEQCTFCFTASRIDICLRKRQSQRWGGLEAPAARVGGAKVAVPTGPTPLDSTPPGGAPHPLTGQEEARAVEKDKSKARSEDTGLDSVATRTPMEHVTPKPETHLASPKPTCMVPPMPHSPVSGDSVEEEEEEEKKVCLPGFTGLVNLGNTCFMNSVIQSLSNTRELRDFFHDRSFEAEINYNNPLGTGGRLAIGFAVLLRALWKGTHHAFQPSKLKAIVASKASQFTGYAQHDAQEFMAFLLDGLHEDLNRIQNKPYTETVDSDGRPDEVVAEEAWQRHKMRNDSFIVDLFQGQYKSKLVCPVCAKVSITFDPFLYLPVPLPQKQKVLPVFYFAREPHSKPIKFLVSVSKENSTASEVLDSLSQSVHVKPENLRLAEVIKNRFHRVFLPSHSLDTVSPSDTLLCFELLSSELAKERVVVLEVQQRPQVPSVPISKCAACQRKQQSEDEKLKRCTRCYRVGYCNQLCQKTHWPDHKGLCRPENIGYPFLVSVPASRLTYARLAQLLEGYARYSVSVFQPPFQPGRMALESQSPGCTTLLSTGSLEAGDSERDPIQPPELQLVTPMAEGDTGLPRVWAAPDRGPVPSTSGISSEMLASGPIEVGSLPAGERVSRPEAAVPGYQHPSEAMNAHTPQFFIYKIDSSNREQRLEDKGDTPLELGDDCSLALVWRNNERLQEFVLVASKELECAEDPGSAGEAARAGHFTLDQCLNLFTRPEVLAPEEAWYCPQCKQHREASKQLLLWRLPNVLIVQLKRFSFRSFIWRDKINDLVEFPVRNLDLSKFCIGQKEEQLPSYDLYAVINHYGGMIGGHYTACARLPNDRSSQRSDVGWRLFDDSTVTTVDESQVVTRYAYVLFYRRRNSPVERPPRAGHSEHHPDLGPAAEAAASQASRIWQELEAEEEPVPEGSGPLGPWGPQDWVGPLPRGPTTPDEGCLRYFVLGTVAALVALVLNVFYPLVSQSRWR
As to `CC1(C)CN(C(=O)c2c[nH]nc2C2CCCCC2)CCC1(O)Cn1cnc(-c2ccccc2F)cc1=O` (racemic) [Example 67, (R,S)-3-((1-(3-Cyclohexyl-1H-pyrazole-4-carbonyl)-4-hydroxy-3,3-dimethylpiperidin-4-yl)methyl)-6-(2-fluorophenyl)pyrimidin-4(3H)-one], the IC50 was in the range of 5 to 50 µM.

`C[C@H](CC(=O)N1CCC(O)(Cn2cc(-c3cccc(CN)c3)c(-c3ccccc3)cc2=O)CC1)c1ccccc1` [Example 100, (R)-5-(3-(Aminomethyl)phenyl)-1-((4-hydroxy-1-(3-phenylbutanoyl)piperidin-4-yl)methyl)-4-phenylpyridin-2(1H)-one]: the IC50 lay in the range of 5 to 50 µM.

For `CCC1(C(=O)N2CCC(O)(Cn3cnc(-c4ccccc4F)cc3=O)CC2)CCCCC1` [Example 24, 3-((1-(1-Ethylcyclohexane-1-carbonyl)-4-hydroxypiperidin-4-yl)methyl)-6-(2-fluorophenyl)pyrimidin-4(3H)-one], the IC50 is 5 to 50 µM.

On to `O=C(c1cn(C[C@]2(O)CCN(C(=O)[C@H](CO)CC(F)(F)F)CC23CCCC3)c(=O)cc1-c1ccccc1)N1CCOCC1` [Example 248, 1-(((S)-10-Hydroxy-7-((S)-4,4,4-trifluoro-2-(hydroxymethyl)butanoyl)-7-azaspiro[4.5]decan-10-yl)methyl)-5-(morpholine-4-carbonyl)-4-phenylpyridin-2(1H)-one], for which the IC50 is < 0.5 µM.

As to `C[C@H](CC1CCCCC1)C(=O)N1CC[C@@](O)(Cn2cc(C(=O)N(C)C)c(C3CC3)cc2=O)C2(CCCC2)C1` [Example 232, 1-(((S)-7-((R)-3-Cyclohexyl-2-methylpropanoyl)-10-hydroxy-7-azaspiro[4.5]decan-10-yl)methyl)-4-cyclopropyl-N,N-dimethyl-6-oxo-1,6-dihydropyridine-3-carboxamide], the IC50 was < 0.5 µM.

For `C[C@H](CC1CCCCC1)C(=O)N1CCC(O)(Cn2cnc(-c3ccccc3CN)cc2=O)C(C)(C)C1` (stereo partly drawn) [Example 141, 6-(2-(Aminomethyl)phenyl)-3-((1-((R)-3-cyclohexyl-2-methylpropanoyl)-4-hydroxy-3,3-dimethylpiperidin-4-yl)methyl)pyrimidin-4(3H)-one], the IC50 was < 0.5 µM.

Regarding `C[C@H](CC1CCCCC1)C(=O)N1CC[C@@](O)(Cn2cc(C(=O)N3CCCC3)c(-c3ccccc3)cc2=O)C(C)(C)C1` [Example 123, 1-(((S)-1-((R)-3-Cyclohexyl-2-methylpropanoyl)-4-hydroxy-3,3-dimethylpiperidin-4-yl)methyl)-4-phenyl-5-(pyrrolidine-1-carbonyl)pyridin-2(1H)-one], the IC50 was < 0.5 µM.

Consider `C[C@H](CC1CCC1)C(=O)N1CC[C@@](O)(Cn2cc(C(=O)N3CCNCC3)c(-c3ccccc3)cc2=O)C2(CCCC2)C1` [Example 215, 1-(((S)-7-((R)-3-Cyclobutyl-2-methylpropanoyl)-10-hydroxy-7-azaspiro[4.5]decan-10-yl)methyl)-4-phenyl-5-(piperazine-1-carbonyl)pyridin-2(1H)-one], for which the IC50 was < 0.5 µM.

Consider `C[C@H](CC1CCCCC1)C(=O)N1CCC(O)(Cn2cc(C(=O)N(C)C)c(-c3cccc(CO)c3)cc2=O)C2(CCCC2)C1` (stereo partly drawn) [Example 156, 1-((7-((R)-3-Cyclohexyl-2-methylpropanoyl)-10-hydroxy-7-azaspiro[4.5]decan-10-yl)methyl)-4-(3-(hydroxymethyl)phenyl)-N,N-dimethyl-6-oxo-1,6-dihydropyridine-3-carboxamide], for which the IC50 is < 0.5 µM.

Take `CC(n1cnc(-c2ccccc2)cc1=O)C1(O)CCN(C(=O)[C@H](C)CC2CCCCC2)CC1` (stereo partly drawn) [Example 108, 3-(1-(1-((R)-3-Cyclohexyl-2-methylpropanoyl)-4-hydroxypiperidin-4-yl)ethyl)-6-phenylpyrimidin-4(3H)-one]: the IC50 lay in the range of 0.5 to 5 µM.

Turning to `C[C@H](CC(=O)N1CCC(O)(Cn2cc(C(=O)NCC3CC3)c(-c3ccccc3)cc2=O)CC1)c1ccccc1` [Example 104, (R)—N-(Cyclopropylmethyl)-1-((4-hydroxy-1-(3-phenylbutanoyl)piperidin-4-yl)methyl)-6-oxo-4-phenyl-1,6-dihydropyridine-3-carboxamide], the IC50 was 5 to 50 µM.

Take `CN(C)C(=O)c1cn(CC2(O)CCN(C(=O)CCC3CCOC3)CC23CCCC3)c(=O)cc1-c1ccccc1` (stereo not shown) [Example 173, 1-((10-Hydroxy-7-(3-(tetrahydrofuran-3-yl)propanoyl)-7-azaspiro[4.5]decan-10-yl)methyl)-N,N-dimethyl-6-oxo-4-phenyl-1,6-dihydropyridine-3-carboxamide]: the IC50 was in the range of 50 to 250 µM.

On to `COc1ccccc1-c1cc(=O)n(CC2(O)CCN(C(=O)C[C@@H](C)c3ccccc3)CC2)cn1` [Example 17, (R)-3-((4-Hydroxy-1-(3-phenylbutanoyl)piperidin-4-yl)methyl)-6-(2-methoxyphenyl)pyrimidin-4(3H)-one], for which the IC50 fell in the range of 5 to 50 µM.

On to `C[C@H](CC1CCCCC1)C(=O)N1CCC(O)(Cn2cnc(-c3ccnn3C)cc2=O)C(C)(C)C1` (stereo partly drawn) [Example 131, 3-((1-((R)-3-Cyclohexyl-2-methylpropanoyl)-4-hydroxy-3,3-dimethylpiperidin-4-yl)methyl)-6-(1-methyl-1H-pyrazol-5-yl)pyrimidin-4(3H)-one], for which the IC50 lay within 0.5 to 5 µM.

`O=C(CCc1ccc(F)cc1)N1CCC(O)(Cn2cnc(-c3ccccc3F)cc2=O)CC1` [Example 82, 6-(2-Fluorophenyl)-3-((1-(3-(4-fluorophenyl)propanoyl)-4-hydroxypiperidin-4-yl)methyl)pyrimidin-4(3H)-one]: the IC50 was in the range of 50 to 250 µM.

`O=C(CCC1CCCC1)N1CCC(O)(Cn2cnc(-c3ccccc3F)cc2=O)CC1` [Example 4, 3-((1-(3-Cyclopentylpropanoyl)-4-hydroxypiperidin-4-yl)methyl)-6-(2-fluorophenyl)pyrimidin-4(3H)-one]: the IC50 lay within 50 to 250 µM.

Consider `C[C@H](CC(=O)N1CCC(O)(Cn2cc(Br)c(-c3ccccc3)cc2=O)CC1)c1ccccc1` [Example 1, (R)-5-Bromo-1-((4-hydroxy-1-(3-phenylbutanoyl)piperidin-4-yl)methyl)-4-phenylpyridin-2(1H)-one], for which the IC50 is 50 to 250 µM.

Turning to `CC(C)N(C)C(=O)c1cn(C[C@]2(O)CCN(C(=O)[C@H](C)CC3CCCCC3)CC2(C)C)c(=O)cc1-c1ccccc1` [Example 120, 1-(((S)-1-((R)-3-Cyclohexyl-2-methylpropanoyl)-4-hydroxy-3,3-dimethylpiperidin-4-yl)methyl)-N-isopropyl-N-methyl-6-oxo-4-phenyl-1,6-dihydropyridine-3-carboxamide], the IC50 is < 0.5 µM.

For `CC(CN1CCCCC1)C(=O)N1CCC(O)(Cn2cc(C(=O)N(C)C)c(-c3ccccc3)cc2=O)C2(CCCC2)C1` (stereo not shown) [Example 158, 1-((10-Hydroxy-7-(2-methyl-3-(piperidin-1-yl)propanoyl)-7-azaspiro[4.5]decan-10-yl)methyl)-N,N-dimethyl-6-oxo-4-phenyl-1,6-dihydropyridine-3-carboxamide], the IC50 lay within 50 to 250 µM.

Turning to `C[C@H](CC1CCC1)C(=O)N1CC[C@@](O)(Cn2cc(C(=O)N(C)C)c(-c3ccccc3)cc2=O)C2(CCCC2)C1` [Example 214, 1-(((S)-7-((R)-3-Cyclobutyl-2-methylpropanoyl)-10-hydroxy-7-azaspiro[4.5]decan-10-yl)methyl)-N,N-dimethyl-6-oxo-4-phenyl-1,6-dihydropyridine-3-carboxamide], the IC50 is < 0.5 µM.

As to `COC[C@H](CC1CCCCC1)C(=O)N1CC[C@@](O)(Cn2cc(C(=O)N(C)C)c(-c3ccccc3)cc2=O)C(C)(C)C1` [Example 160, 1-(((S)-1-((S)-3-Cyclohexyl-2-(methoxymethyl)propanoyl)-4-hydroxy-3,3-dimethylpiperidin-4-yl)methyl)-N,N-dimethyl-6-oxo-4-phenyl-1,6-dihydropyridine-3-carboxamide], the IC50 was < 0.5 µM.

Take `C[C@H](CC1CCCCC1)C(=O)N1CC[C@](O)(Cn2cc(C(=O)N(C)C)c(-c3ccccc3)cc2=O)C2(CCCC2)C1` [Example 209, 1-(((R)-7-((R)-3-Cyclohexyl-2-methylpropanoyl)-10-hydroxy-7-azaspiro[4.5]decan-10-yl)methyl)-N,N-dimethyl-6-oxo-4-phenyl-1,6-dihydropyridine-3-carboxamide]: the half-inhibitory concentration (IC50) lay in the range of 5 to 50 µM.

Regarding `C[C@H](CC(=O)N1CCC(O)(Cn2cnc(-c3cccc4cnn(C)c34)cc2=O)CC1)c1ccccc1` [Example 16, (R)-3-((4-Hydroxy-1-(3-phenylbutanoyl)piperidin-4-yl)methyl)-6-(1-methyl-1H-indazol-7-yl)pyrimidin-4(3H)-one], the IC50 lay within 5 to 50 µM.

With `C[C@H](CC(=O)N1CCC(O)(Cn2cc(N3CCCC3=O)c(-c3ccccc3)cc2=O)CC1)c1ccccc1` [Example 55, (R)-1-((4-Hydroxy-1-(3-phenylbutanoyl)piperidin-4-yl)methyl)-5-(2-oxopyrrolidin-1-yl)-4-phenylpyridin-2(1H)-one], the IC50 is 5 to 50 µM.

On to `C[C@H](CC(=O)N1CCC(O)(Cn2cnc(-c3ccco3)cc2=O)CC1)c1ccccc1` [Example 26, (R)-6-(Furan-2-yl)-3-((4-hydroxy-1-(3-phenylbutanoyl)piperidin-4-yl)methyl)pyrimidin-4(3H)-one], for which the IC50 was in the range of 50 to 250 µM.

For the compound `CN(C)C(=O)c1cn(CC2(O)CCN(C(=O)c3nc(C(F)(F)F)cs3)CC23CCCC3)c(=O)cc1-c1ccccc1` (stereo not shown) [Example 245, 1-((10-Hydroxy-7-(4-(trifluoromethyl)thiazole-2-carbonyl)-7-azaspiro[4.5]decan-10-yl)methyl)-N,N-dimethyl-6-oxo-4-phenyl-1,6-dihydropyridine-3-carboxamide], the IC50 is 5 to 50 µM.

As for `C[C@H](CC(=O)N1CCC(O)(Cn2cc(C(=O)N3CCOCC3)c(-c3ccccc3)cc2=O)CC1)c1ccccc1` [Example 77, (R)-1-((4-Hydroxy-1-(3-phenylbutanoyl)piperidin-4-yl)methyl)-5-(morpholine-4-carbonyl)-4-phenylpyridin-2(1H)-one], the IC50 lay within 0.5 to 5 µM.

Take `C[C@H](CC1CCCCC1)C(=O)N1CCC(O)(Cn2cnc(-c3cccc(CO)c3)cc2=O)C(C)(C)C1` (stereo partly drawn) [Example 138, 3-((1-((R)-3-Cyclohexyl-2-methylpropanoyl)-4-hydroxy-3,3-dimethylpiperidin-4-yl)methyl)-6-(3-(hydroxymethyl)phenyl)pyrimidin-4(3H)-one]: the IC50 is < 0.5 µM.
